Assay results: ChEMBL document CHEMBL5126568, “Determination of Slow-Binding HDAC Inhibitor Potency and Subclass Selectivity” (ACS Med Chem Lett, 2022)

Tests used:
Histone deacetylase 2 [1] = target: T1, Histone deacetylase 2 (Homo sapiens, UniProt Q92769); conditions: time 60.0 min
Histone deacetylase 2 [2] = target: T1, Histone deacetylase 2; test: Inhibition of full length C-terminal FLAG-tagged HDAC2 (unknown origin) assessed as rate constant (k-1) of EI complex using (Ac-Leu-Gly-Lys(Ac)-AMC as substrate measured every 30 sec for 60 mins by fluorescence based assay
Histone deacetylase 2 [3] = target: T1, Histone deacetylase 2; test: Inhibition of full length C-terminal FLAG-tagged HDAC2 (unknown origin) using (Ac-Leu-Gly-Lys(Ac)-AMC as substrate preincubated with enzyme for 2 hrs followed by substrate addition and measured after 30 mins by fluorescence based assay
Histone deacetylase 2 [4] = target: T1, Histone deacetylase 2; test: Inhibition of full length C-terminal FLAG-tagged HDAC2 (unknown origin) using (Ac-Leu-Gly-Lys(Ac)-AMC as substrate preincubated with enzyme for 30 mins followed by substrate addition and measured after 30 mins by fluorescence based assay
Histone deacetylase 2 [5] = target: T1, Histone deacetylase 2; test: Inhibition of full length C-terminal FLAG-tagged HDAC2 (unknown origin) using (Ac-Leu-Gly-Lys(Ac)-AMC as substrate preincubated with enzyme for 1 hrs followed by substrate addition and measured after 30 mins by fluorescence based assay
Histone deacetylase 2 [6] = target: T1, Histone deacetylase 2; test: Inhibition of full length C-terminal FLAG-tagged HDAC2 (unknown origin) assessed as inhibition constant (Ki) using (Ac-Leu-Gly-Lys(Ac)-AMC as substrate measured every 30 sec for 60 mins by fluorescence based assay
Histone deacetylase 1 [7] = target: T2, Histone deacetylase 1 (Homo sapiens, UniProt Q13547); test: Inhibition of full length C-terminal His-tagged HDAC1 (unknown origin) using (Ac-Leu-Gly-Lys(Ac)-AMC as substrate preincubated with enzyme for 1 hrs followed by substrate addition and measured after 30 mins by fluorescence based assay
T2 sequence (Q13547 whole entry): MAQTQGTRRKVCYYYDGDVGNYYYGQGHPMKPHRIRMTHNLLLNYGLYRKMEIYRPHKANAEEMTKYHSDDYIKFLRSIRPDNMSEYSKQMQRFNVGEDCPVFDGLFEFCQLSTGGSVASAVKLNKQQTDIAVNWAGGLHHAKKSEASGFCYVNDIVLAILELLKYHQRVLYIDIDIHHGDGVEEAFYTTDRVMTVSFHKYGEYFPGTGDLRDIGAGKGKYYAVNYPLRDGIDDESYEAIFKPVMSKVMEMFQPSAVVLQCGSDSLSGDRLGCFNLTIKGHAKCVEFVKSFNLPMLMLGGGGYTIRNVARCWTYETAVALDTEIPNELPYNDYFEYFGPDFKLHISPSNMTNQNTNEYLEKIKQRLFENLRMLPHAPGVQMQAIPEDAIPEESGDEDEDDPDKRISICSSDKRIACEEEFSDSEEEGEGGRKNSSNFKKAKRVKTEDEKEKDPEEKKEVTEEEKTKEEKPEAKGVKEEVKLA

Histone deacetylase 1 [8] = target: T2, Histone deacetylase 1; conditions: time 60.0 min
Histone deacetylase 1 [9] = target: T2, Histone deacetylase 1; test: Inhibition of full length C-terminal His-tagged HDAC1 (unknown origin) assessed as rate constant (k1) of EI complex using (Ac-Leu-Gly-Lys(Ac)-AMC as substrate measured every 30 sec for 60 mins by fluorescence based assay
Histone deacetylase 1 [10] = target: T2, Histone deacetylase 1; test: Inhibition of full length C-terminal His-tagged HDAC1 (unknown origin) using (Ac-Leu-Gly-Lys(Ac)-AMC as substrate preincubated with enzyme for 30 mins followed by substrate addition and measured after 30 mins by fluorescence based assay
Histone deacetylase 1 [11] = target: T2, Histone deacetylase 1; test: Inhibition of full length C-terminal His-tagged HDAC1 (unknown origin) using (Ac-Leu-Gly-Lys(Ac)-AMC as substrate preincubated with enzyme for 2 hrs followed by substrate addition and measured after 30 mins by fluorescence based assay
Histone deacetylase 1 [12] = target: T2, Histone deacetylase 1; test: Inhibition of full length C-terminal His-tagged HDAC1 (unknown origin) assessed as inhibition constant (Ki) using (Ac-Leu-Gly-Lys(Ac)-AMC as substrate measured every 30 sec for 60 mins by fluorescence based assay
Histone deacetylase 1 [13] = target: T2, Histone deacetylase 1; test: Inhibition of full length C-terminal His-tagged HDAC1 (unknown origin) assessed as rate constant (k-1) of EI complex using (Ac-Leu-Gly-Lys(Ac)-AMC as substrate measured every 30 sec for 60 mins by fluorescence based assay
Histone deacetylase 2 [14] = target: T1, Histone deacetylase 2; test: Inhibition of full length C-terminal FLAG-tagged HDAC2 (unknown origin) assessed as rate constant (k1) of EI complex using (Ac-Leu-Gly-Lys(Ac)-AMC as substrate measured every 30 sec for 60 mins by fluorescence based assay

T1 sequence (Q92769 whole entry): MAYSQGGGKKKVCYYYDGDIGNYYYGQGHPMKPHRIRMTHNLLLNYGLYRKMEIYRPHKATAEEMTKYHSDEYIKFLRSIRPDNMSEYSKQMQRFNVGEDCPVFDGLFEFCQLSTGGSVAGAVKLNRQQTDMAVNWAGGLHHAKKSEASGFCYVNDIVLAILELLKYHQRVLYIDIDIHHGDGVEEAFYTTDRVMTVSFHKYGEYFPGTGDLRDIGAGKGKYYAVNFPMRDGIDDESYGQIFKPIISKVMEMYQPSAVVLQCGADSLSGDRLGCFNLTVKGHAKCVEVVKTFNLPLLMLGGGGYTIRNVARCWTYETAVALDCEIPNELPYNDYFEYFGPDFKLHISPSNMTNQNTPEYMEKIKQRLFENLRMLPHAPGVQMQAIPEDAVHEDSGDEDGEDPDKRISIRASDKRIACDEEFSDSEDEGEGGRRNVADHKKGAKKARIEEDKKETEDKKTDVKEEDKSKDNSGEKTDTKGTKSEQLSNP

Row | T1/2 (Histone deacetylase 2 [1]) [h] | K (Histone deacetylase 2 [2]) | IC50 (Histone deacetylase 2 [3]) [nM] | IC50 (Histone deacetylase 2 [4]) [nM] | IC50 (Histone deacetylase 2 [5]) [nM] | Ki (Histone deacetylase 2 [6]) [nM] | IC50 (Histone deacetylase 1 [7]) [nM] | T1/2 (Histone deacetylase 1 [8]) [h] | K (Histone deacetylase 1 [9]) | IC50 (Histone deacetylase 1 [10]) [nM] | IC50 (Histone deacetylase 1 [11]) [nM] | Ki (Histone deacetylase 1 [12]) [nM] | K (Histone deacetylase 1 [13]) | K (Histone deacetylase 2 [14]) | Compound
1 | > 4 | – | – | – | – | – | – | – | – | – | – | – | – | – | Nc1ccccc1NC(=O)c1ccc(CNC(=O)OCc2cccnc2)cc1
2 | 2.17 | 5 10^-3/min | 14 | 48 | 24.8 | 103 | 7.07 | 3.67 | 7.8 10^-5/nM/min | 11.3 | 4.89 | 40 | 3 10^-3/min | 5.1 10^-5/nM/min | CCCNNC(=O)c1ccc(CNC(=O)/C=C/c2ccccc2)cc1
